For four molecules, IC50 results are on record in PubChem BioAssay AID831 (PCMD, 2007).

Active and inactive are the calls of the source. The rule behind the calls is not given here.

By IC50 is commonly meant the concentration that inhibits the measured activity by half.

Chain of Cathepsin S (Homo sapiens) (P25774 115-331 limits assumed): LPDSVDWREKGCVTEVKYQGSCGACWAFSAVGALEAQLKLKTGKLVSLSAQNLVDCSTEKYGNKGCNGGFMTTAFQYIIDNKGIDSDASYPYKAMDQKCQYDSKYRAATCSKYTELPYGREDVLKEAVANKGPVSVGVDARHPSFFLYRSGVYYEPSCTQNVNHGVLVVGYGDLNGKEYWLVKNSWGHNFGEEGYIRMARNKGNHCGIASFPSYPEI

The experiment addresses Cathepsin S (Homo sapiens) (UniProt P25774). As to the kind of experiment: IC50 of CTSS protease blockers – biochemical, confirmation, dose response (AID 831). The settings on record: purified cathepsin S enzyme activity, fluorescence.
In the case of `CC1=C(C(=O)Nc2ccc(F)cc2)C(c2cccc(C)c2)n2nc(CCCO)nc2N1` (centres undefined), the IC50 was > 50 µM (inactive).

Consider `CC(=O)c1c(O)n(C)c(=S)n(-c2ccccc2)c1=O`, for which the IC50 is > 50 µM (inactive).

For the molecule `N#CC1=C(N)Oc2c(sc3ccccc23)C1c1ccco1` (centres undefined), the IC50 is > 50 µM (inactive).

Turning to `CCN1CC=C2C(C#N)=C(N)C(C#N)(C#N)C(CCc3ccccc3)C2C1` (centres undefined), the IC50 is 6.55 µM.
